{"source": "paper PMC6946680", "about": "“Modulation of brain cation-Cl^− cotransport via the SPAK kinase inhibitor ZT-1a” (Nature Communications, 2020)", "molecular_target": "T1, GST–[T233E]SPAK kinase (Homo sapiens, UniProt Q9UEW8, T231E)", "T1 construct": "made in house; host or cells: E. coli", "experiment": "SPAK kinase assay with CATCHtide and IC50 determination", "assay_type": "biochemical", "excerpt": "II. Experimental procedures\n1. Reagents and General methods\nTissue culture reagents were from Life Technologies. P81 phosphocellulose paper was from Whatman […]\nand [γ-32P]-ATP was from Perkin Elmer. […] Protein G […]\nsepharose was from Amersham. DNA constructs used for transfection were purified from Escherichia coli DH5α using Qiagen or Invitrogen plasmid Maxi kits according to the manufacturer's protocol. All DNA constructs were verified by DNA sequencing.\n2. Plasmids, protein expression and purification\nDNA clones were from the Division of Signal Transduction Therapy (University of Dundee). The SPAK proteins were expressed in E. Coli and purified as described previously 1.\n3. SPAK kinase assays and IC50 determination\nSPAK kinase assays employed CATCHtide (cation chloride co-transporter peptide substrate). Peptide kinase assays, performed in triplicate, were set up in a total volume of 50 μl containing 0.5 μg GST– […]\ncpm/pmol) and the indicated concentrations of inhibitor dissolved in DMSO. After incubation for 30 min at 30°C, reactions were terminated by spotting 40 μl of the reaction mix onto P81 phosphocellulose paper and immersion in 50 mM phosphoric acid. The papers were washed extensively and incorporation of [γ-32P]ATP into CATCHtide was quantified by Cerenkov counting.\nIC50 values were calculated with GraphPad Prism using non-linear regression analysis.\n4. Fluorescence polarization […]\nconcentrations between 0.00001 to 1 mM. Data points are the means of three determinations, with error […]\nA Supplemental Fig. 7 Effects of increasing concentrations of ZT-1a on SPAK activity in the absence […]\nthe absence or presence of five-fold molar excess of wild-type MO25α. b Kinetic data determined for B ZT-1a in the absence or presence of five-fold molar excess of wild-type MO25α. Data are means of […]\npresence of wild-type MO25α.", "note": "“And” between values parts separate entries of the source, which are not always exact repeats. Equal values may be shown once. “Also recorded” adds a separate entry of the source."}
{"smiles": "Cc1cc(C(C#N)c2ccc(Cl)cc2)c(Cl)cc1NC(=O)c1cc(Cl)ccc1O", "note": "(stereo not shown) [ZT-1a, 5-chloro-N-(5-chloro-4-((4-chlorophenyl)(cyano)methyl)-2-methylphenyl)-2-hydroxybenzamide]", "values": [{"measurement": "change of SPAK IC50 values on addition of MO25α", "value": "not significantly altered"}, {"measurement": "SPAK kinase activity signal (Fig S3 source data)", "setting": "ATP 0.01 mM, inhibitor 1e-5 uM", "value": "911 and 899 and 905"}, {"measurement": "SPAK kinase activity signal (Fig S3 source data)", "setting": "ATP 0.01 mM, inhibitor 0.0001 uM", "value": "906 and 879 and 883"}, {"measurement": "SPAK kinase activity signal (Fig S3 source data)", "setting": "ATP 0.01 mM, inhibitor 0.001 uM", "value": "901 and 899 and 907"}, {"measurement": "SPAK kinase activity signal (Fig S3 source data)", "setting": "ATP 0.01 mM, inhibitor 0.003 uM", "value": 805}, {"measurement": "SPAK kinase activity signal (Fig S3 source data)", "setting": "ATP 0.01 mM, inhibitor 0.03 uM", "value": "855 and 847 and 825"}, {"measurement": "SPAK kinase activity signal (Fig S3 source data)", "setting": "ATP 0.01 mM, inhibitor 0.1 uM", "value": "867 and 893 and 851"}, {"measurement": "SPAK kinase activity signal (Fig S3 source data)", "setting": "ATP 0.01 mM, inhibitor 0.3 uM", "value": "813 and 804 and 787"}, {"measurement": "SPAK kinase activity signal (Fig S3 source data)", "setting": "ATP 0.01 mM, inhibitor 1 uM", "value": "756 and 821 and 793"}, {"measurement": "SPAK kinase activity signal (Fig S3 source data)", "setting": "ATP 0.01 mM, inhibitor 3 uM", "value": "663 and 688 and 705"}, {"measurement": "SPAK kinase activity signal (Fig S3 source data)", "setting": "ATP 0.01 mM, inhibitor 10 uM", "value": "478 and 525 and 503"}, {"measurement": "SPAK kinase activity signal (Fig S3 source data)", "setting": "ATP 0.01 mM, inhibitor 100 uM", "value": "456 and 325 and 371"}, {"measurement": "SPAK kinase activity signal (Fig S3 source data)", "setting": "ATP 0.01 mM, inhibitor 1000 uM", "value": "220 and 194 and 213"}, {"measurement": "SPAK kinase activity signal (Fig S3 source data)", "setting": "ATP 0.1 mM, inhibitor 1e-5 uM", "value": "902 and 887 and 849"}, {"measurement": "SPAK kinase activity signal (Fig S3 source data)", "setting": "ATP 0.1 mM, inhibitor 0.0001 uM", "value": "867 and 845 and 874"}, {"measurement": "SPAK kinase activity signal (Fig S3 source data)", "setting": "ATP 0.1 mM, inhibitor 0.001 uM", "value": "844 and 856 and 837"}, {"measurement": "SPAK kinase activity signal (Fig S3 source data)", "setting": "ATP 0.1 mM, inhibitor 0.03 uM", "value": "798 and 815 and 804"}, {"measurement": "SPAK kinase activity signal (Fig S3 source data)", "setting": "ATP 0.1 mM, inhibitor 0.1 uM", "value": "796 and 805 and 782"}, {"measurement": "SPAK kinase activity signal (Fig S3 source data)", "setting": "ATP 0.1 mM, inhibitor 0.3 uM", "value": "796 and 786 and 754"}, {"measurement": "SPAK kinase activity signal (Fig S3 source data)", "setting": "ATP 0.1 mM, inhibitor 1 uM", "value": "802 and 788 and 766"}, {"measurement": "SPAK kinase activity signal (Fig S3 source data)", "setting": "ATP 0.1 mM, inhibitor 3 uM", "value": "706 and 686 and 718"}, {"measurement": "SPAK kinase activity signal (Fig S3 source data)", "setting": "ATP 0.1 mM, inhibitor 10 uM", "value": "561 and 556 and 583"}, {"measurement": "SPAK kinase activity signal (Fig S3 source data)", "setting": "ATP 0.1 mM, inhibitor 100 uM", "value": "226 and 309 and 284"}, {"measurement": "SPAK kinase activity signal (Fig S3 source data)", "setting": "ATP 0.1 mM, inhibitor 1000 uM", "value": "187 and 106 and 158"}, {"measurement": "SPAK kinase activity signal (Fig S3 source data)", "setting": "ATP 1 mM, inhibitor 1e-5 uM", "value": "880 and 891 and 864"}, {"measurement": "SPAK kinase activity signal (Fig S3 source data)", "setting": "ATP 1 mM, inhibitor 0.0001 uM", "value": "892 and 902 and 916"}, {"measurement": "SPAK kinase activity signal (Fig S3 source data)", "setting": "ATP 1 mM, inhibitor 0.001 uM", "value": "869 and 902 and 885"}, {"measurement": "SPAK kinase activity signal (Fig S3 source data)", "setting": "ATP 1 mM, inhibitor 0.03 uM", "value": "812 and 786 and 753"}, {"measurement": "SPAK kinase activity signal (Fig S3 source data)", "setting": "ATP 1 mM, inhibitor 0.1 uM", "value": "862 and 807 and 759"}, {"measurement": "SPAK kinase activity signal (Fig S3 source data)", "setting": "ATP 1 mM, inhibitor 0.3 uM", "value": "768 and 789 and 736"}, {"measurement": "SPAK kinase activity signal (Fig S3 source data)", "setting": "ATP 1 mM, inhibitor 1 uM", "value": "662 and 719 and 681"}, {"measurement": "SPAK kinase activity signal (Fig S3 source data)", "setting": "ATP 1 mM, inhibitor 3 uM", "value": "641 and 604 and 563"}, {"measurement": "SPAK kinase activity signal (Fig S3 source data)", "setting": "ATP 1 mM, inhibitor 10 uM", "value": "554 and 604 and 587"}, {"measurement": "SPAK kinase activity signal (Fig S3 source data)", "setting": "ATP 1 mM, inhibitor 100 uM", "value": "453 and 345 and 405"}, {"measurement": "SPAK kinase activity signal (Fig S3 source data)", "setting": "ATP 1 mM, inhibitor 1000 uM", "value": "222 and 164 and 186"}, {"measurement": "change of SPAK IC50 values with increasing ATP concentration", "setting": "ATP between 0.01 and 1 mM", "value": "unchanged; also recorded: unaffected by changing [ATP]"}, {"measurement": "ZT-1a vs SPAK+MO25, kinase activity", "setting": "SPAK + MO25, ZT-1a 1e-5 uM, Fig S7b", "value": "401897 C.P.M and 396529 C.P.M and 387112 C.P.M"}]}
